According to patent US10131652B2, “Pyrimidinyloxy benzene derivatives as herbicides” (E. I. DU PONT DE NEMOURS AND COMPANY, priority 2014, dated 2018):
Where two headings read alike, the source gives them in different places.

How the values were obtained:
Experiment in all cases: Test F pre-/postemergence plant response
Format in all cases: in vivo
corn (Zea mays) = details: scale 0 to 100; for Corn plant response rating (crop injury, 0 = no effect, 100 = complete kill) at 16 g/ha / Corn plant response rating (crop injury, 0 = no effect, 100 = complete kill) at 31 g/ha / Corn plant response rating (crop injury, 0 = no effect, 100 = complete kill) at 62 g/ha / Corn plant response rating (crop injury, 0 = no effect, 100 = complete kill) at 125 g/ha: Zea mays
Procedure, shortened: (§1)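 Seeds were sown in silt loam soil and sprayed preemergence; separately, plants at the 1- to 4-leaf stage (2 to 18 cm) received postemergence sprays. Test chemicals were in a non-phytotoxic solvent mixture with surfactant. After 14 to 21 days in a greenhouse, injury was visually rated 0 (no effect) to 100 (complete control) against untreated controls.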

[1] = tested on: fall panicum (Panicum dichotomiflorum); details: scale 0 to 100; for pest or weed control at 16 g/ha / pest or weed control at 31 g/ha / pest or weed control at 62 g/ha / pest or weed control at 125 g/ha: Panicum dichotomiflorum, read-out: Plant response rating, Panicum, Fall
Procedure, shortened: as §1

[2] = tested on: Brazilian crabgrass (Digitaria horizontalis); details: scale 0 to 100; for pest or weed control at 16 g/ha / pest or weed control at 31 g/ha / pest or weed control at 62 g/ha / pest or weed control at 125 g/ha: Digitaria horizontalis, read-out: Plant response rating, Crabgrass, Brazil
Procedure, shortened: as §1

[3] = tested on: morningglory (Ipomoea coccinea); details: scale 0 to 100; for pest or weed control at 16 g/ha / pest or weed control at 31 g/ha / pest or weed control at 125 g/ha / pest or weed control at 62 g/ha: Ipomoea, pre-emergence, read-out: Plant response rating, Morningglory
Procedure, shortened: as §1

[4] = tested on: green foxtail (Setaria viridis); details: scale 0 to 100; for pest or weed control at 16 g/ha / pest or weed control at 31 g/ha / pest or weed control at 125 g/ha / pest or weed control at 62 g/ha: Setaria viridis, pre-emergence, read-out: Plant response rating, Foxtail, Green; for pest or weed control at 16 g/ha: 16 g ai/ha; for pest or weed control at 31 g/ha: 31 g ai/ha; for pest or weed control at 125 g/ha: 125 g ai/ha
Procedure, shortened: as §1

[5] = tested on: ragweed (common ragweed, Ambrosia elatior); details: scale 0 to 100; for pest or weed control at 16 g/ha / pest or weed control at 31 g/ha / pest or weed control at 62 g/ha / pest or weed control at 125 g/ha: Ambrosia artemisiifolia, read-out: Plant response rating, Ragweed
Procedure, shortened: as §1

[6] = tested on: lambsquarters (Chenopodium album); details: scale 0 to 100; for pest or weed control at 16 g/ha / pest or weed control at 31 g/ha / pest or weed control at 125 g/ha / pest or weed control at 62 g/ha: Chenopodium album, pre-emergence, read-out: Plant response rating, Lambsquarters; for pest or weed control at 16 g/ha: 16 g ai/ha; for pest or weed control at 31 g/ha: 31 g ai/ha; for pest or weed control at 125 g/ha: 125 g ai/ha
Procedure, shortened: as §1

[7] = post-emergence, 16 g ai/ha Postemergence
[8] = post-emergence, 31 g ai/ha Postemergence
[9] = post-emergence, 62 g ai/ha Postemergence
[10] = post-emergence, 125 g ai/ha Postemergence
[11] = pre-emergence, 16 g ai/ha Preemergence
[12] = pre-emergence, 31 g ai/ha Preemergence
[13] = pre-emergence, 62 g ai/ha Preemergence
[14] = pre-emergence, 125 g ai/ha Preemergence

Fc1cccc(Oc2ncc(Cl)cn2)c1-c1cc(C(F)F)no1 [Compound 144, 5-chloro-2-[2-[3-(difluoromethyl)-5-isoxazolyl]-3-fluorophenoxy]pyrimidine]
Corn plant response rating (crop injury, 0 = no effect, 100 = complete kill) at 16 g/ha (corn (Zea mays); [7]): 10%
Corn plant response rating (crop injury, 0 = no effect, 100 = complete kill) at 31 g/ha (corn (Zea mays); [8]): 5%
Corn plant response rating (crop injury, 0 = no effect, 100 = complete kill) at 62 g/ha (corn (Zea mays); [9]): 10%
Corn plant response rating (crop injury, 0 = no effect, 100 = complete kill) at 125 g/ha (corn (Zea mays); [10]): 10%
Corn plant response rating (crop injury, 0 = no effect, 100 = complete kill) at 16 g/ha (corn (Zea mays); [11]): 0%
Corn plant response rating (crop injury, 0 = no effect, 100 = complete kill) at 31 g/ha (corn (Zea mays); [12]): 0%
Corn plant response rating (crop injury, 0 = no effect, 100 = complete kill) at 62 g/ha (corn (Zea mays); [13]): 40%
Corn plant response rating (crop injury, 0 = no effect, 100 = complete kill) at 125 g/ha (corn (Zea mays); [14]): 35%
pest or weed control at 16 g/ha [1, 7]: 25%
pest or weed control at 31 g/ha [1, 8]: 30%
pest or weed control at 62 g/ha [1, 9]: 35%
pest or weed control at 125 g/ha [1, 10]: 60%
pest or weed control at 16 g/ha [1, 11]: 95%
pest or weed control at 31 g/ha [1, 12]: 100%
pest or weed control at 125 g/ha [1, 14]: 100%
pest or weed control at 62 g/ha ([1]; pre-emergence, Preemergence): 100%
pest or weed control at 16 g/ha [2, 7]: 40%
pest or weed control at 31 g/ha [2, 8]: 50%
pest or weed control at 62 g/ha [2, 9]: 40%
pest or weed control at 125 g/ha [2, 10]: 55%
pest or weed control at 16 g/ha [2, 11]: 75%
pest or weed control at 31 g/ha [2, 12]: 95%
pest or weed control at 62 g/ha [2, 13]: 98%
pest or weed control at 125 g/ha [2, 14]: 100%
pest or weed control at 16 g/ha ([3]; 16 g ai/ha Preemergence): 0%
pest or weed control at 31 g/ha ([3]; 31 g ai/ha Preemergence): 0%
pest or weed control at 125 g/ha ([3]; 125 g ai/ha Preemergence): 95%
pest or weed control at 62 g/ha ([3]; Preemergence): 65%
pest or weed control at 16 g/ha ([4]; Preemergence): 25%
pest or weed control at 31 g/ha ([4]; Preemergence): 95%
pest or weed control at 125 g/ha ([4]; Preemergence): 100%
pest or weed control at 62 g/ha ([4]; Preemergence): 98%
pest or weed control at 16 g/ha [5, 7]: 50%
pest or weed control at 31 g/ha [5, 8]: 50%
pest or weed control at 62 g/ha [5, 9]: 85%
pest or weed control at 125 g/ha [5, 10]: 90%
pest or weed control at 16 g/ha [5, 11]: 0%
pest or weed control at 31 g/ha [5, 12]: 0%
pest or weed control at 125 g/ha [5, 14]: 85%
pest or weed control at 62 g/ha ([5]; pre-emergence, Preemergence): 95%
pest or weed control at 16 g/ha ([6]; Preemergence): 100%
pest or weed control at 31 g/ha ([6]; Preemergence): 100%
pest or weed control at 125 g/ha ([6]; Preemergence): 100%
pest or weed control at 62 g/ha ([6]; Preemergence): 100%

Fc1cccc(Oc2ncc(Br)cn2)c1-c1cc(C(F)F)no1 [Compound 145, 5-bromo-2-[2-[3-(difluoromethyl)-5-isoxazolyl]-3-fluorophenoxy]pyrimidine]
Corn plant response rating (crop injury, 0 = no effect, 100 = complete kill) at 16 g/ha (corn (Zea mays); [7]): 5%
Corn plant response rating (crop injury, 0 = no effect, 100 = complete kill) at 31 g/ha (corn (Zea mays); [8]): 10%
Corn plant response rating (crop injury, 0 = no effect, 100 = complete kill) at 62 g/ha (corn (Zea mays); [9]): 20%
Corn plant response rating (crop injury, 0 = no effect, 100 = complete kill) at 125 g/ha (corn (Zea mays); [10]): 20%
Corn plant response rating (crop injury, 0 = no effect, 100 = complete kill) at 16 g/ha (corn (Zea mays); [11]): 0%
Corn plant response rating (crop injury, 0 = no effect, 100 = complete kill) at 31 g/ha (corn (Zea mays); [12]): 0%
Corn plant response rating (crop injury, 0 = no effect, 100 = complete kill) at 62 g/ha (corn (Zea mays); [13]): 40%
Corn plant response rating (crop injury, 0 = no effect, 100 = complete kill) at 125 g/ha (corn (Zea mays); [14]): 60%
pest or weed control at 16 g/ha [1, 7]: 10%
pest or weed control at 31 g/ha [1, 8]: 10%
pest or weed control at 62 g/ha [1, 9]: 50%
pest or weed control at 125 g/ha [1, 10]: 80%
pest or weed control at 16 g/ha [1, 11]: 65%
pest or weed control at 31 g/ha [1, 12]: 80%
pest or weed control at 125 g/ha [1, 14]: 100%
pest or weed control at 62 g/ha ([1]; pre-emergence, Preemergence): 95%
pest or weed control at 16 g/ha [2, 7]: 20%
pest or weed control at 31 g/ha [2, 8]: 20%
pest or weed control at 62 g/ha [2, 9]: 40%
pest or weed control at 125 g/ha [2, 10]: 50%
pest or weed control at 16 g/ha [2, 11]: 5%
pest or weed control at 31 g/ha [2, 12]: 80%
pest or weed control at 62 g/ha [2, 13]: 95%
pest or weed control at 125 g/ha [2, 14]: 100%
pest or weed control at 16 g/ha ([3]; 16 g ai/ha Preemergence): 0%
pest or weed control at 31 g/ha ([3]; 31 g ai/ha Preemergence): 10%
pest or weed control at 125 g/ha ([3]; 125 g ai/ha Preemergence): 35%
pest or weed control at 62 g/ha ([3]; Preemergence): 15%
pest or weed control at 16 g/ha ([4]; Preemergence): 5%
pest or weed control at 31 g/ha ([4]; Preemergence): 40%
pest or weed control at 125 g/ha ([4]; Preemergence): 100%
pest or weed control at 62 g/ha ([4]; Preemergence): 100%
pest or weed control at 16 g/ha [5, 7]: 30%
pest or weed control at 31 g/ha [5, 8]: 50%
pest or weed control at 62 g/ha [5, 9]: 60%
pest or weed control at 125 g/ha [5, 10]: 70%
pest or weed control at 16 g/ha [5, 11]: 0%
pest or weed control at 31 g/ha [5, 12]: 70%
pest or weed control at 125 g/ha [5, 14]: 80%
pest or weed control at 62 g/ha ([5]; pre-emergence, Preemergence): 65%
pest or weed control at 16 g/ha ([6]; Preemergence): 100%
pest or weed control at 31 g/ha ([6]; Preemergence): 100%
pest or weed control at 125 g/ha ([6]; Preemergence): 100%
pest or weed control at 62 g/ha ([6]; Preemergence): 100%

CC(F)(F)c1cc(-c2ccccc2Oc2ncc(Br)cn2)no1 [Compound 149]
Plant response rating, Corn (corn (Zea mays); 16 g ai/ha Postemergence): 0
Plant response rating, Corn (corn (Zea mays); 16 g ai/ha Preemergence): 0
Plant response rating, Corn (corn (Zea mays); 31 g ai/ha Postemergence): 10
Plant response rating, Corn (corn (Zea mays); 31 g ai/ha Preemergence): 0
Plant response rating, Corn (corn (Zea mays); 62 g ai/ha Postemergence): 10
Plant response rating, Corn (corn (Zea mays); 62 g ai/ha Preemergence): 0
Plant response rating, Corn (corn (Zea mays); 125 g ai/ha Postemergence): 15
Plant response rating, Corn (corn (Zea mays); 125 g ai/ha Preemergence): 0
Plant response rating, Panicum, Fall ([1]; 16 g ai/ha Postemergence): 10
Plant response rating, Panicum, Fall ([1]; 16 g ai/ha Preemergence): 0
Plant response rating, Panicum, Fall ([1]; 31 g ai/ha Postemergence): 20
Plant response rating, Panicum, Fall ([1]; 31 g ai/ha Preemergence): 80
Plant response rating, Panicum, Fall ([1]; 62 g ai/ha Postemergence): 20
Plant response rating, Panicum, Fall ([1]; 125 g ai/ha Postemergence): 40
Plant response rating, Panicum, Fall ([1]; 125 g ai/ha Preemergence): 100
Plant response rating, Panicum, Fall ([1]; Preemergence): 98
Plant response rating, Crabgrass, Brazil ([2]; 16 g ai/ha Postemergence): 20
Plant response rating, Crabgrass, Brazil ([2]; 16 g ai/ha Preemergence): 0
Plant response rating, Crabgrass, Brazil ([2]; 31 g ai/ha Postemergence): 20
Plant response rating, Crabgrass, Brazil ([2]; 31 g ai/ha Preemergence): 15
Plant response rating, Crabgrass, Brazil ([2]; 62 g ai/ha Postemergence): 20
Plant response rating, Crabgrass, Brazil ([2]; 62 g ai/ha Preemergence): 35
Plant response rating, Crabgrass, Brazil ([2]; 125 g ai/ha Postemergence): 25
Plant response rating, Crabgrass, Brazil ([2]; 125 g ai/ha Preemergence): 85
Plant response rating, Morningglory ([3]; 16 g ai/ha Preemergence): 0
Plant response rating, Morningglory ([3]; 31 g ai/ha Preemergence): 0
Plant response rating, Morningglory ([3]; 125 g ai/ha Preemergence): 10
Plant response rating, Morningglory ([3]; Preemergence): 0
Plant response rating, Foxtail, Green ([4]; 16 g ai/ha Preemergence): 0
Plant response rating, Foxtail, Green ([4]; 31 g ai/ha Preemergence): 0
Plant response rating, Foxtail, Green ([4]; 125 g ai/ha Preemergence): 50
Plant response rating, Foxtail, Green ([4]; Preemergence): 50
Plant response rating, Ragweed ([5]; 16 g ai/ha Postemergence): 10
Plant response rating, Ragweed ([5]; 16 g ai/ha Preemergence): 20
Plant response rating, Ragweed ([5]; 31 g ai/ha Postemergence): 40
Plant response rating, Ragweed ([5]; 31 g ai/ha Preemergence): 25
Plant response rating, Ragweed ([5]; 62 g ai/ha Postemergence): 30
Plant response rating, Ragweed ([5]; 125 g ai/ha Postemergence): 35
Plant response rating, Ragweed ([5]; 125 g ai/ha Preemergence): 20
Plant response rating, Ragweed ([5]; Preemergence): 35
Plant response rating, Lambsquarters ([6]; 31 g ai/ha Preemergence): 0
Plant response rating, Lambsquarters ([6]; 125 g ai/ha Preemergence): 100
Plant response rating, Lambsquarters ([6]; Preemergence): 100
